{"source": "patent EP2196204A1", "about": "(priority 2007, dated 2009)", "tested_on": "DU-145", "assay_type": "cell-based, human"}
{"compound": "CC(=O)O[C@H]1C(=O)[C@@]2(C)[C@H]([C@H](OC(=O)c3ccccc3)[C@]3(O)C[C@H](OC(=O)[C@H](O)[C@@H](NC(=O)c4ccccc4)c4ccccc4)C(C)=C1C3(C)C)[C@]1(OC(C)=O)CO[C@@H]1C[C@@H]2O", "note": "[Taxol]", "values": [{"measurement": "Cell survival rate", "value": 63.88, "unit": "%"}]}
